The text below walks through data of the SangsterLogP compilation.

The data set can be described thus: method code SF-ESR, from DOI: 10.3109/10715769009149900, PMID: 2175281.

The logD is lipophilicity at a set pH, counting ionised and neutral species.

Compound `CC1(C)C=C(C(N)=O)C(C)(C)N1O` had a logD (pH 7.0) of 0.25.

Turning to `CN(C)CC1=CC(C)(C)N(O)C1(C)C`, the logD (pH 12.0) was 0.7.

With `CC1(C)C=C(C(=O)O)C(C)(C)N1O`, under “pH 2.5”, the logD was 1.11.

As to `CC1(C)CC(O)CC(C)(C)N1O`, the logD (pH 7.0) turned out to be 0.63.

As to `CC1(C)[C@H](C(=O)O)[C@H](C(=O)O)C(C)(C)N1O`, the logD (pH 2.5) came to 0.46.

Turning to `CC1(C)C=C(CN2CCCCC2)C(C)(C)N1O`, the logD (pH 12.0) worked out at 1.88.

`CC1(C)C=CC(C)(C)N1O`: the logD (pH 7.0) stood at 1.31.

Compound `CC1(C)CC(CN)C(C)(C)N1O` (stereo unspecified) returned a pH-dependent lipophilicity (logD) (pH 12.0) of 0.36.

`CC1(C)C=CCC(C)(C)N1O`: the logD (pH 7.0) stood at 1.78.

On to `CC1(C)CC(C(N)=O)C(C)(C)N1O` (stereo unspecified), for which the logD (pH 7.0) was -0.21.

On to `CC1(C)CC(=O)CC(C)(C)N1O`, for which the logD (pH 7.0) stood at 0.12.

The compound `CN(C)CCN(C)CC1=CC(C)(C)N(O)C1(C)C` gave a logD (pH 12.0) of 0.91.

The compound `CC1(C)C=C(CN2CCOCC2)CC(C)(C)N1O` showed a pH-dependent lipophilicity (logD) (pH 12.0) of 1.14.

`CC1(C)CC(CO)C(C)(C)N1O` (stereo unspecified) had a logD (pH 7.0) of 0.34.

Consider `CC1(C)C=C(CN2CCCCC2)CC(C)(C)N1O`, for which the logD (pH 12.0) stood at 1.58.

`CC1(C)CC(N)C(C)(C)N1O` (stereo unspecified) came in with a logD (pH 12.0) of 1.03.
